Patent US20130315830A1, “PSMA as a BioMarker for Androgen Activity in Prostate Cancer” (Cornell University, priority 2012, published 2013)

Test system: LAPC-4, expressing wild-type AR

With C[C@]12CCC(=O)C[C@@H]1CC[C@@H]1[C@@H]2CC[C@]2(C)[C@@H](O)CC[C@@H]12 [DHT, 5α-dihydrotestosterone] the PSMA expression was “low level of PSMA”.
